From US20260250318A1, “COMPOSITIONS AND METHODS FOR CROSSING THE BLOOD BRAIN BARRIER” (VOYAGER THERAPEUTICS, INC., priority 2022, published 2026)

Experiments:
Conditions in all cases: synthetic library passage 3, intravenous, relative to wild-type AAV9
[1] = test system: brain, spinal cord, and DRG of the NHPs; assay: NGS fold enrichment of synthetic library (passage 3) in NHPs, first cross-species screen; format: in vivo, cynomolgus macaques (Macaca fascicularis)
Procedure, shortened: (§1)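 Synthetic capsid library (passage 3) was given intravenously […] to NHPs aged 2-4 years and to BALB/c and C57Bl/6 mice (n=3 each, 6-8 weeks). After about 28 days in vivo, tissue RNA was RT-PCR amplified and NGS-sequenced; values are fold enrichment per variant relative to wild-type AAV9.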

brain [2] = assay: NGS fold enrichment of synthetic library (passage 3) in BALB/c mice, first cross-species screen; format: in vivo
Procedure, shortened: as §1

brain [3] = assay: NGS fold enrichment of synthetic library (passage 3) in C57Bl/6 mice, first cross-species screen; format: in vivo
Procedure, shortened: as §1

[4] = RNA from spinal cord of NHPs, NGS
[5] = RNA from brain of BALB/c mice, NGS
[6] = RNA from brain of C57Bl/6 mice, NGS

Sequence	Fold enrichment over AAV9 in the brain of NHPs ([1]; RNA NGS, brain of NHPs)	Fold enrichment over AAV9 in the spinal cord of NHPs ([1]; RNA NGS, spinal cord of NHPs)	Fold enrichment over AAV9 in the brain of Mice (BALB/c) (brain [2]; RNA NGS, brain of BALB/c mice)	Fold enrichment over AAV9 in the brain of Mice (C57Bl/6) (brain [3]; RNA NGS, brain of C57Bl/6 mice)	Fold enrichment over AAV9 in the brain of NHPs ([1]; RNA from brain of NHPs, NGS)	Fold enrichment over AAV9 in the spinal cord of NHPs [1, 4]	Fold enrichment over AAV9 in the brain of Mice (BALB/c) (brain [2]; [5])	Fold enrichment over AAV9 in the brain of Mice (C57Bl/6) (brain [3]; [6])
GSGQNTGQHMMQQT	1.090 fold	1.058 fold	0.917 fold	1.147 fold				
GSGQNQQGTLLHQT	1.728 fold	2.065 fold	1.303 fold	1.347 fold				
GSGQNQQTVQSNLV	1.103 fold	2.350 fold	0.698 fold	0.577 fold				
GSLVSVQTGQNQQT	3.534 fold	6.043 fold	0.469 fold	0.903 fold				
GSLMDVHRGQNQQT					1.150 fold	0.387 fold	0.238 fold	1.009 fold
GSGQNQQIGESRMT					1.279 fold	0.103 fold	0.453 fold	0.890 fold
GSPLQDRVGQNQQT	1.548 fold	0.753 fold	0.391 fold	0.469 fold				
GSGQNGHLSLKQQT	2.362 fold	1.896 fold	0.270 fold	0.718 fold				
GNVTTQKSGQNQQT	1.122 fold	2.546 fold	0.922 fold	1.215 fold				
GVKGVGHSGQNQQT	1.096 fold	2.485 fold	0.783 fold	0.994 fold				
GSGLKPNVLQNQQT					1.263 fold	0.975 fold	0.268 fold	0.701 fold
GSGQNRAHAFLQQT	1.795 fold	0.000 fold	1.271 fold	1.200 fold				
GSGYTSLFLQNQQT	2.710 fold	0.010 fold	1.044 fold	0.490 fold				
GSGQNQQTVGNPAT	1.008 fold	3.014 fold	0.395 fold	0.856 fold				
GSGQNPSFMRGQQT					1.252 fold	1.454 fold	1.094 fold	1.293 fold
GSGQNRAQSRFQQT	3.043 fold	0.000 fold	1.788 fold	0.619 fold				

Sequence	Fold enrichment over AAV9 in the brain of NHPs ([1]; RNA NGS, brain of NHPs)	Fold enrichment over AAV9 in the spinal cord of NHPs ([1]; RNA NGS, spinal cord of NHPs)	Fold enrichment over AAV9 in the brain of Mice (BALB/c) (brain [2]; RNA NGS, brain of BALB/c mice)	Fold enrichment over AAV9 in the brain of Mice (C57Bl/6) (brain [3]; RNA NGS, brain of C57Bl/6 mice)	Fold enrichment over AAV9 in the brain of NHPs ([1]; RNA from brain of NHPs, NGS)	Fold enrichment over AAV9 in the spinal cord of NHPs [1, 4]	Fold enrichment over AAV9 in the brain of Mice (BALB/c) (brain [2]; [5])	Fold enrichment over AAV9 in the brain of Mice (C57Bl/6) (brain [3]; [6])
GSGASRMSIQNQQT	1.045 fold	0.111 fold	0.417 fold	0.801 fold				
GSGQSVQTVVNQQT	3.057 fold	5.441 fold	0.240 fold	0.582 fold				
GSGQNAYSSQAQQT					1.201 fold	12.096 fold	0.216 fold	0.629 fold
GFMSYKGSGQNQQT	2.865 fold	0.209 fold	0.569 fold	1.808 fold				
GLSWPSTSGQNQQT	2.238 fold	0.000 fold	0.610 fold	0.910 fold				
GSHSQSGHGQNQQT	1.413 fold	1.240 fold	0.318 fold	0.696 fold				
GSGQPRSTGINQQT	1.061 fold	0.693 fold	0.542 fold	0.650 fold				
GSGLKWSTLQNQQT	1.556 fold	0.000 fold	2.442 fold	1.134 fold				
GSGQVHASQVNQKT	1.049 fold	0.503 fold	0.767 fold	0.855 fold				
GSRTTQDIGQNQQT					1.247 fold	0.000 fold	0.280 fold	0.685 fold
GSGQNQQTLSKPWT	1.743 fold	0.253 fold	0.733 fold	0.845 fold				
GSGGLDTRGQNQQT	2.139 fold	6.216 fold	0.197 fold	0.236 fold				
GRAVMDHSGQNQQT	2.408 fold	3.209 fold	0.283 fold	0.728 fold				
GSGQNQQPSLRQST					1.356 fold	2.905 fold	0.554 fold	1.315 fold
GSGQPYSTGLNQQT	1.519 fold	1.403 fold	0.376 fold	0.612 fold				
